Numbers after ± are expanded uncertainties.
Assay: molar heat capacity at constant pressure
Settings: 101.33 kPa, Crystal, Vacuum adiabatic calorimetry

O=C(CO)[C@@H](O)[C@H](O)[C@H](O)CO [D-fructose]
Settings	molar heat capacity at constant pressure [J/K/mol]
10 K	0.91 ± 0.02
14.06 K	2.815 ± 0.037
14.48 K	3.13 ± 0.04
14.92 K	3.379 ± 0.043
15.36 K	3.634 ± 0.045
15.81 K	3.919 ± 0.049
16.27 K	4.218 ± 0.052
16.77 K	4.66 ± 0.056
17.29 K	5.05 ± 0.06
17.75 K	5.334 ± 0.063
18.24 K	5.753 ± 0.067
18.76 K	6.186 ± 0.072
19.31 K	6.585 ± 0.076
19.89 K	7.065 ± 0.081
20 K	7.19 ± 0.08
20.47 K	7.626 ± 0.086
21.03 K	8.082 ± 0.091
21.55 K	8.514 ± 0.095
22.09 K	9.015 ± 0.1
22.64 K	9.566 ± 0.11
23.22 K	10.1 ± 0.11
23.84 K	10.61 ± 0.12
24.41 K	11.21 ± 0.12
24.96 K	11.67 ± 0.13
25.84 K	12.67 ± 0.14
26.71 K	13.5 ± 0.14
27.31 K	14.07 ± 0.15
28.19 K	14.91 ± 0.16
29.03 K	15.7 ± 0.17
29.58 K	16.16 ± 0.17
30 K	16.66 ± 0.18
30.14 K	16.84 ± 0.18
30.73 K	17.43 ± 0.18
31.35 K	18.05 ± 0.19
31.98 K	18.53 ± 0.19
32.62 K	19.19 ± 0.2
33.28 K	19.89 ± 0.21
33.96 K	20.59 ± 0.21
34.65 K	21.26 ± 0.22
35.36 K	21.95 ± 0.23
36.07 K	22.67 ± 0.23
36.78 K	23.42 ± 0.24
37.5 K	24.11 ± 0.25
38.21 K	24.83 ± 0.26
38.91 K	25.52 ± 0.26
39.6 K	26.21 ± 0.27
40 K	26.59 ± 0.27
40.28 K	26.89 ± 0.28
40.99 K	27.59 ± 0.28
41.73 K	28.3 ± 0.29
42.48 K	29.02 ± 0.3
43.26 K	29.78 ± 0.31
44.03 K	30.54 ± 0.31
44.8 K	31.29 ± 0.32
45.6 K	32.07 ± 0.33
46.41 K	32.85 ± 0.34
47.23 K	33.62 ± 0.34
48.05 K	34.43 ± 0.35
48.87 K	35.18 ± 0.36
49.66 K	35.98 ± 0.37
50 K	36.27 ± 0.37
50.46 K	36.72 ± 0.38
51.3 K	37.5 ± 0.38
52.17 K	38.33 ± 0.39
53.08 K	39.16 ± 0.4
54 K	40.03 ± 0.41
54.92 K	40.88 ± 0.42
55.87 K	41.75 ± 0.43
56.84 K	42.65 ± 0.44
57.8 K	43.54 ± 0.45
58.75 K	44.39 ± 0.45
59.68 K	45.25 ± 0.46
60 K	45.54 ± 0.47
60.61 K	46.09 ± 0.47
61.55 K	46.94 ± 0.48
62.48 K	47.76 ± 0.49
63.4 K	48.61 ± 0.5
64.31 K	49.43 ± 0.5
65.22 K	50.22 ± 0.51
66.18 K	51.08 ± 0.52
67.16 K	51.94 ± 0.53
68.22 K	52.9 ± 0.54
69.33 K	53.88 ± 0.55
70 K	54.46 ± 0.55
70.43 K	54.83 ± 0.56
71.5 K	55.79 ± 0.57
72.63 K	56.77 ± 0.58
73.81 K	57.78 ± 0.59
74.97 K	58.8 ± 0.6
76.11 K	59.77 ± 0.61
77.23 K	60.74 ± 0.62
78.4 K	61.72 ± 0.63
79.61 K	62.76 ± 0.64
80 K	63.1 ± 0.64
80.81 K	63.77 ± 0.65
81.98 K	64.8 ± 0.66
83.14 K	65.76 ± 0.67
84.34 K	66.77 ± 0.68
85.59 K	67.84 ± 0.69
86.82 K	68.83 ± 0.7
88.03 K	69.88 ± 0.71
89.22 K	70.89 ± 0.72
90 K	71.52 ± 0.74
90.46 K	71.89 ± 0.74
91.74 K	72.99 ± 0.76
93 K	73.99 ± 0.77
94.24 K	75.03 ± 0.78
95.47 K	76.03 ± 0.79
96.74 K	77.1 ± 0.8
98.05 K	78.13 ± 0.81
99.34 K	79.2 ± 0.82
100 K	79.73 ± 0.82
100.61 K	80.23 ± 0.83
101.88 K	81.25 ± 0.84
103.17 K	82.3 ± 0.85
104.51 K	83.38 ± 0.86
105.83 K	84.42 ± 0.87
107.14 K	85.5 ± 0.88
108.44 K	86.51 ± 0.89
109.77 K	87.55 ± 0.9
110 K	87.77 ± 0.9
111.13 K	88.69 ± 0.91
112.49 K	89.72 ± 0.92
113.83 K	90.79 ± 0.93
115.15 K	91.82 ± 0.94
116.54 K	92.94 ± 0.95
118 K	94.07 ± 0.96
119.43 K	95.21 ± 0.97
120 K	95.65 ± 0.98
120.86 K	96.29 ± 0.99
122.27 K	97.42 ± 1
123.72 K	98.53 ± 1
125.19 K	99.73 ± 1
126.66 K	100.86 ± 1
128.15 K	101.99 ± 1
129.65 K	103.12 ± 1.1
130 K	103.4 ± 1.1
131.18 K	104.32 ± 1.1
132.78 K	105.56 ± 1.1
134.41 K	106.79 ± 1.1
136.01 K	107.97 ± 1.1
137.61 K	109.25 ± 1.1
139.24 K	110.5 ± 1.1
140 K	111.05 ± 1.1
140.9 K	111.75 ± 1.1
142.55 K	112.96 ± 1.1
144.18 K	114.21 ± 1.2
145.81 K	115.47 ± 1.2
147.46 K	116.73 ± 1.2
149.19 K	117.96 ± 1.2
150 K	118.61 ± 1.2
150.94 K	119.3 ± 1.2
152.67 K	120.61 ± 1.2
154.39 K	121.92 ± 1.2
156.15 K	123.22 ± 1.2
157.94 K	124.55 ± 1.3
159.71 K	125.9 ± 1.3
160 K	126.11 ± 1.3
161.48 K	127.16 ± 1.3
163.23 K	128.53 ± 1.3
165.01 K	129.85 ± 1.3
166.83 K	131.22 ± 1.3
168.63 K	132.53 ± 1.4
170 K	133.55 ± 1.4
170.42 K	133.87 ± 1.4
172.26 K	135.21 ± 1.4
174.19 K	136.66 ± 1.4
176.16 K	138.12 ± 1.4
178.11 K	139.54 ± 1.4
180 K	140.95 ± 1.4
180.05 K	140.98 ± 1.4
181.97 K	142.44 ± 1.4
183.93 K	143.86 ± 1.5
185.92 K	145.37 ± 1.5
187.9 K	146.78 ± 1.5
189.86 K	148.24 ± 1.5
190 K	148.33 ± 1.5
191.82 K	149.62 ± 1.5
193.8 K	151.13 ± 1.5
195.89 K	152.65 ± 1.6
198.03 K	154.23 ± 1.6
200 K	155.71 ± 1.6
200.16 K	155.79 ± 1.6
202.27 K	157.38 ± 1.6
204.41 K	158.97 ± 1.6
206.59 K	160.59 ± 1.6
208.75 K	162.27 ± 1.6
210 K	163.12 ± 1.6
210.91 K	163.79 ± 1.7
213.05 K	165.43 ± 1.7
215.22 K	166.88 ± 1.7
217.41 K	168.61 ± 1.7
219.6 K	170.28 ± 1.7
220 K	170.57 ± 1.7
221.78 K	172.01 ± 1.7
223.94 K	173.59 ± 1.8
226.14 K	175.1 ± 1.8
228.44 K	176.89 ± 1.8
230 K	178.09 ± 1.8
230.8 K	178.65 ± 1.8
233.16 K	180.52 ± 1.8
235.5 K	182.33 ± 1.8
237.87 K	184.07 ± 1.9
240 K	185.67 ± 1.9
240.27 K	185.87 ± 1.9
242.65 K	187.7 ± 1.9
245.03 K	189.43 ± 1.9
247.39 K	191.32 ± 1.9
249.78 K	193.01 ± 1.9
250 K	193.28 ± 1.9
252.2 K	194.95 ± 2
254.6 K	196.74 ± 2
257 K	198.58 ± 2
259.38 K	200.5 ± 2
260 K	200.91 ± 2
261.79 K	202.31 ± 2
264.29 K	204.15 ± 2.1
266.82 K	206.25 ± 2.1
269.35 K	208.09 ± 2.1
270 K	208.52 ± 2.1
271.87 K	210.03 ± 2.1
274.41 K	211.71 ± 2.1
276.98 K	213.84 ± 2.2
279.54 K	215.75 ± 2.2
280 K	216.17 ± 2.2
282.08 K	217.72 ± 2.2
284.61 K	219.77 ± 2.2
287.17 K	221.78 ± 2.2
289.76 K	223.86 ± 2.3
290 K	224.03 ± 2.3
292.33 K	225.93 ± 2.3
294.92 K	227.98 ± 2.3
297.52 K	230.08 ± 2.3
298.15 K	230.55 ± 2.3
300 K	232.04 ± 2.3
300.15 K	232.18 ± 2.3
302.81 K	234.38 ± 2.4
305.45 K	236.46 ± 2.4
308.08 K	238.4 ± 2.4
310 K	240.14 ± 2.4
310.7 K	240.73 ± 2.4
313.34 K	242.98 ± 2.5
316 K	244.99 ± 2.5
318.66 K	247.19 ± 2.5
320 K	248.27 ± 2.5
321.3 K	249.35 ± 2.5
323.93 K	251.32 ± 2.5
326.58 K	253.53 ± 2.6
329.26 K	255.9 ± 2.6
330 K	256.36 ± 2.6

From the NIST ThermoML archive (doi:10.1016/j.jct.2018.11.014)
